{"source": "patent US9907857B2", "about": "“Peptide having cell membrane penetrating activity” (EWHA UNIVERSITY-INDUSTRY COLLABORATION FOUNDATION, priority 2006, dated 2018)", "molecules": {"B1": {"name": "full length TCTP: translationally controlled tumor protein, 172 amino acids, expressed with 6 histidine tag in E. coli (protein, UniProt P13693 1-172, looked up)", "chain": "MIIYRDLISHDEMFSDIYKIREIADGLCLEVEGKMVSRTEGNIDDSLIGGNASAEGPEGEGTESTVITGVDIVMNHHLQETSFTKEAYKKYIKDYMKSIKGKLEEQRPERVKPFMTGAAEQIKHILANFKNYQFFIGENMNPDGMVALLDYREDGVTPYMIFFKDGLEMEKC", "modifications": "full-length"}}, "format_in_all_cases": "cell-based", "key": {"HeLa cells [1]": {"test_system": "HeLa cells", "assay": "Intracellular translocation of alanine substituents of TCTP(1-9), microplate fluorescence reader", "details": "for decline in uptake, fluorescence intensity of TCTP (1-9) at 100 μM set to 100%: sensitivity 75 (FIG. 5); for penetrating activity of alanine substituents compared with WT TCTP(1-9): HeLa", "description": "N-terminus of each peptide was labeled with fluorescence dye, rhodamine and C-terminus was protected. Peptide purity (>95%) was determined by HPLC. Synthesis of peptides of present invention was requested to PEPTRON, Inc.\n(§1) HeLa cell line was propagated in DMEM supplemented with 10% FBS and 100 units/mL penicillin-streptomycin. Cells were grown in a 5% CO2 incubator at 37° C.\n(§2) HeLa cells were cultured in 48-well plate until they were 70˜80% grown up before a day of the experiment. The cells were washed with DMEM of 37° C. twice, and TCTP-derived peptides synthesized in Example 4-1) were treated to the culture medium in a dose dependent manner (0, 1, 10, 100 μM), then the cells was incubated for 15 minutes or 2 hours in an CO2 incubator at 37° C.\nAfter the incubation, the cells were washed in cool PBS three times and immediately measured by a microplate fluorescence reader at emission 530 nm and excitation 590 nm for a measurement of rhodamine of intracellular uptake marker. The sensitivity of reader was set at 100 as a basic, but was lowered to 75 if fluorescent signals were strong. All experiments were conducted in triplet repeats for reproducibility (FIG. 5 and FIG. 6).\nMeanwhile, when the sensitivity of KC4 plate reader was set down to 75, we could not analyze the result of cell penetrating activity at relatively low concentration of 1 or 10 μM, so sensitivity of reader was fixed at 100 (FIG. 6). At this time, because fluorescence intensity at 100 μM was very strong, we could not express in a same graph."}, "HeLa cells [2]": {"test_system": "HeLa cells", "assay": "Cell penetrating efficiency of rhodamine-labelled TCTP-derived peptides, microplate fluorescence reader", "details": "for intracellular translocation, dependence on concentration: 0-100 μM, 15 minutes or 2 hours; for efficiency versus control peptide TAT at low concentration: 1 μM and 10 μM; for cell penetrating activity / translocation efficiency in comparison with TAT (words): HeLa, rhodamine-labelled peptides, overall", "description": "N-terminus of each peptides was labeled with fluorescence dye, rhodamine and C-terminus was protected. Peptide purity (>95%) was determined by HPLC. Synthesis of the peptides was requested to PEPTRON, Inc.\nHeLa cell line (ATCC) was propagated in DMEM (GIBCO) supplemented with 10% FBS (GIBCO) and 100 units/mL penicillin-streptomycin. Cells were grown in a 5% CO2 incubator at 37° C.\nas §2, with “2-1)” for “4-1)”, “1, 5,” for “1,”, “10, 50,” for “10,”\nAfter the incubation, the cells were washed in cool PBS three times and immediately measured by a microplate fluorescence reader (BIO-TEK instruments, Inc., Vermont, USA) at emission 530 nm and excitation 590 nm for a measurement of rhodamine of intracellular uptake marker. The sensitivity of reader was set at 100 as a basic mode, but was lowered to 75 if the fluorescent signals were too strong. All experiments were conducted in triplet repeats for reproducibility (FIG. 2 and FIG. 3)."}, "HeLa cells [3]": {"test_system": "HeLa cells", "assay": "Cell penetrating activity of FITC-labelled mutant peptides, mean fluorescence intensity by FACS", "details": "2 hours, FACS", "description": "N-terminus of each peptide was labeled with fluorescence dye, FITC and C-terminus was protected. Peptide purity (>95%) was determined by HPLC. Synthesis of the peptides of the present invention was requested to PEPTRON, Inc.\nas §1\nHeLa cells were cultured in 6-well plate until they were 70˜80% grown up before a day of the experiment. The cells were washed with DMEM of 37° C. twice, and TCTP-derived peptides synthesized in Example 5-1) were treated to the culture medium in a dose dependent manner (0, 1, 10, 100 μM), then the cells was incubated for 2 hours in an CO2 incubator at 37° C.,\nAfter the incubation, the cells were washed in cool PBS two times and treated with 1 mg/ml trypsin for 15 min at 37° C. to digest peptides attached on cell membrane and washed in PBS twice again. Then, the cells were analyzed by FACS at emission 510 nm and excitation 530 nm for a measurement of FITC of intracellular uptake marker (FIGS. 7, 8 and 9). Intracellular translocation efficiency of mutant peptides, TCTP-CPP#1-35(SEQ ID Nos.: 20-54) was compared to wild type(WT), TCTP(1-10)(SEQ ID No.: 1) and control peptide, TAT(48-57)."}, "HeLa cells [4]": {"test_system": "HeLa cells", "details": "treated for 48 hours; concentration not restated, 100 μM implied", "description": "To confirm whether cell penetrating activity of the peptides of present invention was due to membrane weakness as a result of cytotoxicity, we measured cytotoxicity as follows. HeLa cells were cultured in 96-well plate until they were 70% grown up before a day of the experiment. Control TAT 48-57 and the mutant peptides at concentrations of 0, 1, 10, 100 μM were treated to DMEM supplemented with 10% FBS for 24 and 48 hours. After 2 hours in addition of 10 μl of CCK-8 to each well, absorbance at 450 nm was measured by KC4 plate reader(FIGS. 10, 11 and 12). As a result of toxicity at 100 μM for 24 hours, cytotoxicity of SEQ ID No.: 1, TCTP(1-10) was about 14% compared with control, and cytotoxicities of the other peptides, TCTP-CPP#3, 7 and 8 were insignificant considering standard deviation. When treated for 48 hours, all peptides had no cytotoxicity at 1 and 10 μM while cytotoxicities of TAT, TCTP(1-10), TCTP-CPP#3, 7 and 8 were about 53.8, 28.3, 46.2, 8.2 and 25.6%, respectively. […] Also, all of TCTP-CPP#27-35 had no cytotoxicity at 1 μM and 10 μM but had cytotoxicity at 100 μM."}, "HeLa cells [5]": {"test_system": "HeLa cells", "assay": "Intracellular translocation of TCTP-derived peptide by fluorescence microscope", "details": "2 hours", "description": "HeLa cells were treated with TCTP (1-9)(SEQ ID No.: 2) at a concentration of 10 μM and 100 μM by the same method of Example 2-2). […] After washing, cells on cover glass attached slide glass were observed (FIG. 4)."}, "BEAS-2B cell": {"test_system": "BEAS-2B cell", "assay": "Cellular uptake of deletion forms of TCTP, western blot of supernatant and lysate", "details": "15 ug/ml", "description": "To overexpress each of those deletion forms of TCTP (FIGS. 1a and 1c), pRSET vector that is capable of tagging 6 histidine was employed. Subcloning with DNA sequences corresponding to each deletion forms of TCTP was performed in the multicloning site of the vector. Then, the recombinant expression vector was introduced into E. coli BL21(DE3)(Novagen) or BL21(DE3)pLysS (Novagen). The expression of the deletion forms of TCTP was induced by IPTG (isopropyl (-D-thiogalactoside) for 3 hours, then the protein was isolated and purified by using Ni column which binds to polyhistidine.\nBEAS-2B cell was treated with the deletion form of TCTP at the concentration of 15 ug/ml with anti-TCTP antibodies (FIG. 1b).\nIn addition, it was examined whether TCTP proteins of the present invention could be transferred to cellular interior for a short time, 5 minutes or 30 minutes. The experiment was performed by same method as the above (FIG. 1d)."}}}
{"molecule": "MIIYRDLAS [SEQ ID No.: 14]", "values": [{"measurement": "decline in uptake, fluorescence intensity of TCTP (1-9) at 100 μM set to 100%", "setting": "HeLa cells [1]; 2 hours", "value": "about 50%"}]}
{"molecule": "GRKKRRQRRR (Human immunodeficiency virus; (1)..(10) 48-57 amino acid residue of TAT) [TAT(48-57), Control peptide, well-known PTD from HIV-1 TAT, reference compound]", "values": [{"measurement": "intracellular translocation, dependence on concentration", "setting": "HeLa cells [2]", "value": "transduced into cell in a dose and time-dependent manner"}, {"measurement": "concentration at which translocation was saturated", "setting": "HeLa cells [2]; 2 hour treatment (FIG. 3)", "value": "≥ 1", "unit": "µM"}, {"measurement": "mean fluorescence intensity (MFI) relative to WT, MFI of WT at 10 μM set to 1", "setting": "HeLa cells [3]; peptide at 10 μM", "value": 6.1, "unit": "times"}, {"measurement": "mean fluorescence intensity (MFI) relative to WT", "setting": "HeLa cells [3]; peptide at 100 μM", "value": 94.75, "unit": "times"}, {"measurement": "cytotoxicity", "setting": "HeLa cells [4]", "value": "about 53.8%"}]}
{"molecule": "MIIYRDLIS ((1)..(9) 1-9 amino acid residue of TCTP; listed as Homo sapiens) [SEQ ID No.: 2, Residues of TCTP(1-9)]", "values": [{"measurement": "intracellular translocation, dependence on concentration", "setting": "HeLa cells [2]", "value": "translocated not in 1-10 μM but in 50-100 μM"}, {"measurement": "efficiency versus control peptide TAT at low concentration", "setting": "HeLa cells [2]", "value": "lower efficiency than control peptide, TAT"}, {"measurement": "cell penetrating activity / translocation efficiency in comparison with TAT (words)", "setting": "HeLa cells [2]", "value": "excellent cell penetrating activity in comparison with conventional TAT"}, {"measurement": "cell penetrating activity / translocation efficiency in comparison with TAT (words)", "setting": "HeLa cells [2]; listed as TCTP (1-9)", "value": "superior ability than well-known PTD, TAT in their translocation efficiency"}, {"measurement": "cell penetrating activity / translocation efficiency in comparison with TAT (words)", "setting": "HeLa cells [2]; listed as TCTP(1-9)", "value": "more excellent penetrating activity than well-known TAT(47-58) peptide"}, {"measurement": "intracellular translocation (fluorescence microscope)", "setting": "HeLa cells [5]; 10 μM", "value": "weakly translocated"}, {"measurement": "intracellular translocation (fluorescence microscope)", "setting": "HeLa cells [5]; 100 μM", "value": "strongly"}, {"measurement": "intracellular distribution (fluorescence microscope)", "setting": "HeLa cells [5]; HeLa", "value": "distributed widely in cytoplasm and nucleus of the cell"}]}
{"molecule": "MIIYRALIS (mutant peptide based on human sequence; (1)..(9) TCTP(1-9)D6A) [SEQ ID No.: 13]", "values": [{"measurement": "penetrating activity, fluorescence intensity of TCTP (1-9) at 10 μM set to 1", "setting": "HeLa cells [1]; 10 μM, 2 hours, sensitivity 100 (FIG. 6)", "value": 2.5, "unit": "times"}, {"measurement": "decline in uptake, fluorescence intensity of TCTP (1-9) at 100 μM set to 100%", "setting": "HeLa cells [1]; 2 hours", "value": "about 50%"}, {"measurement": "penetrating activity of alanine substituents compared with WT TCTP(1-9)", "setting": "HeLa cells [1]", "value": "still maintained in translocation activity"}]}
{"molecule": "MIIYRDLIA (mutant peptide based on human sequence; (1)..(9) TCTP(1-9)S9A) [SEQ ID No.: 16]", "values": [{"measurement": "decline in uptake, fluorescence intensity of TCTP (1-9) at 100 μM set to 100%", "setting": "HeLa cells [1]; 2 hours", "value": "about 50%"}, {"measurement": "penetrating activity of alanine substituents compared with WT TCTP(1-9)", "setting": "HeLa cells [1]", "value": "still maintained in translocation activity"}]}
{"molecule": "MIIYRDLAS [SEQ ID No.: 15] (mutant peptide based on human sequence; (1)..(9) TCTP(1-9)I8A)", "values": [{"measurement": "decline in uptake, fluorescence intensity of TCTP (1-9) at 100 μM set to 100%", "setting": "HeLa cells [1]; 2 hours", "value": "about 50%"}]}
{"molecule": "MIIYADLIS (mutant peptide based on human sequence; (1)..(9) TCTP(1-9)R5A) [SEQ ID No.: 12]", "values": [{"measurement": "decline in uptake, fluorescence intensity of TCTP (1-9) at 100 μM set to 100%", "setting": "HeLa cells [1]; 2 hours", "value": "about 50%"}, {"measurement": "penetrating activity of alanine substituents compared with WT TCTP(1-9)", "setting": "HeLa cells [1]", "value": "still maintained in translocation activity"}]}
{"molecule": "MIIYRDLI ((1)..(8) 1-8 amino acid residue of TCTP; listed as Homo sapiens) [SEQ ID No.: 3, Residues of TCTP(1-8)]", "values": [{"measurement": "intracellular translocation, dependence on concentration", "setting": "HeLa cells [2]", "value": "translocated not in 1-10 μM but in 50-100 μM"}, {"measurement": "efficiency versus control peptide TAT at low concentration", "setting": "HeLa cells [2]", "value": "lower efficiency than control peptide, TAT"}, {"measurement": "cell penetrating activity / translocation efficiency in comparison with TAT (words)", "setting": "HeLa cells [2]", "value": "excellent cell penetrating activity in comparison with conventional TAT"}, {"measurement": "cell penetrating activity / translocation efficiency in comparison with TAT (words)", "setting": "HeLa cells [2]; listed as TCTP (1-8)", "value": "superior ability than well-known PTD, TAT in their translocation efficiency"}, {"measurement": "cell penetrating activity / translocation efficiency in comparison with TAT (words)", "setting": "HeLa cells [2]; listed as TCTP(1-8)", "value": "more excellent penetrating activity than well-known TAT(47-58) peptide"}]}
{"molecule": "B1", "values": [{"measurement": "protein in cell supernatant (western blot, anti-TCTP antibodies)", "setting": "BEAS-2B cell; 24 hours later", "value": "disappeared 24 hours later"}, {"measurement": "protein in cell supernatant (western blot, anti-TCTP antibodies)", "setting": "BEAS-2B cell; incubation for 1 hour", "value": "existed in cell supernatants"}]}
